Source: US12564641B2 (EISAI R&D MANAGEMENT CO., LTD., priority 2019, dated 2026)
“Also recorded” adds a separate entry of the source. Read-outs that look alike come from different tables or passages of the source.

Key:
[1] = SEC-HPLC aggregation analysis; type: physicochemical; details: Table 21, humanized 345A12
Experimental: SEC-HPLC analysis was conducted using Agilent 1200 HPLC system.
Aggregation of LCcys80 ADCs was analyzed by size-exclusion, high-performance liquid chromatography (SEC-HPLC) using an Agilent 1200 HPLC. Antibodies and ADCs were prepared at 2 mg/mL in 1×DPBS, 8 μL (16 μg) of each sample was injected and run for 36 min. All data were analyzed using Agilent ChemStation software. Percent aggregation, percent monomer, and percent fragmentation were reported.

[2] = Capillary isoelectric focusing (cIEF) analysis; type: physicochemical
Experimental: Auto-sampler reagents were filled according to the CFR installation and start-up procedures. Hemoglobin was used as system stability standard. Default settings for batch data analysis was used. Focus period #1 was performed for 1 min at 1,500 V for both the system suitability standards and samples. Focus period #2 was performed for 5 min at 3,000 V for the system suitability standards and 11 min at 3,000 V for the TIGC samples and matched buffer controls. Duplicate TIGC samples used Focus period #2 at 4.5 min and all samples were bracketed with a system suitability standard. Samples were automatically integrated using a peak width parameter of 0.1 and threshold of 5 and integrated between pI 7.5-9.4.

[3] = Concentration of purified humanized 345A12 antibodies to 5 mg/mL; type: physicochemical; details: purified antibody in 1×DPBS
Experimental: The super-humanized 345A12 antibodies were purified from 350 mL of scale-up cell culture and formulated in 1×DPBS. The antibodies were concentrated for physical-chemical property evaluation.

[4] = test system: cynomolgus monkey mesothelin; experiment: BIAcore binding affinity, cynomolgus monkey mesothelin (Example 10)
Experimental: (§1) Binding affinity: Binding measurements were performed in HBS-P+ buffer on a BIAcore T-100 instrument. Antibodies were diluted to 1 μg/mL in HBS-P+. Samples were centrifuged at 14,000×g for 5 min at room temperature and then supernatants were transferred to a new 1.5 mL BIAcore tube and capped. Mesothelin (50 μg) was diluted to 100 nM in 1×HBS-P+ buffer, then serial diluted 5-fold at 100, 20, 4, 0.8, and 0.16 nM in BIAcore tubes and capped. Anti-human antibody capture chip was prepared according to the manufacturer's protocol using a CM5 chip with immobilization wizard. Final capture antibody levels were 8000-9000RU, in HBS-P+. Chip was prepared for assay with five cycles of 300 sec buffer injection followed by 30 sec regeneration, all at 30 μL/min across all four flow cells.
(§2) Antibodies were captured on flow cells 2-4 by sequential injections of individual ligand solutions for 90 sec at 10 μL/min. Analyte injection was done in a single-cycle kinetics manner by sequential injections of analyte solutions from low to high concentration for 240 sec each at 30 μL/min. Detection was 2-1, 3-1, 4-1. Double-referencing was performed by a sequence of identical ligand capture injections, followed by 5 buffer-only injections for 240 sec each, dissociation for 1800 sec, and regeneration as above. All ligands were analyzed for binding to mesothelin in duplicate. […]

[5] = molecular target: T1, rat mesothelin (Rattus norvegicus, UniProt Q9ERA7); experiment: BIAcore binding affinity, rat mesothelin (Example 10)
T1 sequence (Q9ERA7 36-600): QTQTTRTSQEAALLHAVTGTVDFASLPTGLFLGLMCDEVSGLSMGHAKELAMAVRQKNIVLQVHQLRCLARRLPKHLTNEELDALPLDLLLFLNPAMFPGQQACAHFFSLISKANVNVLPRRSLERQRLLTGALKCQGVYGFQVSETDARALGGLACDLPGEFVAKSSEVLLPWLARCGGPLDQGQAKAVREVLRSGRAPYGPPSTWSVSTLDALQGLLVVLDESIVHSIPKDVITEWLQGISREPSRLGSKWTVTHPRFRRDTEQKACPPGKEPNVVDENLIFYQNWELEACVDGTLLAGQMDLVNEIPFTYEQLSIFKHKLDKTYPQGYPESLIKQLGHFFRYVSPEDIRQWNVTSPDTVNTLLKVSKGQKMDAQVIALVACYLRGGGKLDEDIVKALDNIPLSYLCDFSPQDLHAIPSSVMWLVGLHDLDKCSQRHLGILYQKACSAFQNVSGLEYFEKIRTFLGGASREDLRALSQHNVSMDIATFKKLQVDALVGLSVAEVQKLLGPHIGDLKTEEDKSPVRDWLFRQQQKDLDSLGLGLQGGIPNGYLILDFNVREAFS
Experimental: as §1, §2

[6] = test system: MSLN-negative cell lines; experiment: In vitro cytotoxicity (IC50, Crystal Violet) on MSLN-negative cell lines (Example 11); type: cell-based; details: for IC50: read-out: In vitro cell based potency, IC50
Experimental: Plates were incubated at 37° C. 5% CO2 for an additional 5 days. […] Plates were read at 570 nm.

[7] = test system: MSLN-positive cell lines; experiment: In vitro cytotoxicity (IC50, Crystal Violet) on MSLN-positive cell lines (Example 11); details: for IC50: read-out: In vitro cell based potency, IC50
Experimental: Cytotoxicity: Cells were sub-cultured and seeded at 5,000 cells/well in complete growth medium in 96-well tissue culture plates, and incubated at 37° C., 5% CO2 overnight (16 hours). Test reagents were serially diluted 1:3 in 2 mL deep-well dilution plates, starting at 200 nM (10 dilutions total). Diluted samples (100 μL) were added to the cell plates (starting concentration of test samples at 100 nM). Plates were incubated at 37° C. 5% CO2 for an additional 5 days. Medium was then discarded, and plates were washed once with 200 μL DPBS, stained with 50 μL of 0.2% Crystal Violet solution at room temperature for 15 min, and then washed extensively with tap water. Plates were air-dried, and Crystal Violet was dissolved with 200 μL of 1% SDS solution. Plates were read at 570 nm. Data was analyzed for IC50 determination using GraphPad Prism 6.

[8] = test system: MSLN-expressing CHO cells; experiment: ADCC activity, luciferase assay with Jurkat-Effector cells; type: cell-based
Experimental: MSLN-expressing CHO cells were thawed and seeded 1.000 cells/well (25 μL) in 96-well tissue culture plates in complete RPMI-4% Ultralow IgG FBS. […] 6,000 Jurkat-Effector cells (Promega) were thawed and added (25 μL) to the cell plate, and the plate was incubated at 37° C. 5% CO2 for 18-22 hours.
Luciferase assay reagent was thawed in the dark. 75 μL of luciferase assay reagent was added to each well, plates were shaken for 30 sec on a plate shaker. Plates were read on a luminometer after 5 min incubation.

[9] = test system: human gastric cancer NCI-N87 xenograft; experiment: Human gastric cancer NCI-N87 xenograft model (Example 15); type: in vivo, mouse; details: 5 mg/kg
Experimental: (§3) 100 μL/mouse of the mixture was injected subcutaneously.

[10] = test system: human mesothelioma HAY xenograft; experiment: Human mesothelioma HAY xenograft model (Example 16); type: in vivo, mouse; details: 5 mg/kg
Experimental: as §3

[11] = test system: human mesothelioma PDX Meso7212; experiment: Human mesothelioma PDX model Meso7212 (Example 17); type: in vivo, mouse; details: 10 mg/kg single dose i.v.
Experimental: Xenotransplantation: On day 0. Meso 7212 tumors were removed from the five donor mice under sterile conditions.
Experimental procedure: After the xenotransplantation, the engraftment and the propagation of the tumor in the mice were controlled at least twice weekly by palpation. When the tumor was palpable, the measurements of tumor diameters were performed with a digital caliper (Mitutoyo).
From the first treatment day onwards, tumor volumes and body weights were recorded twice weekly. The animal welfare was controlled twice daily.
Treatment: All agents were administered intravenously as a single dose on the day of randomization. Animals in the control group were treated with DPBS in the same manner.

[12] = test system: human NSCLC PDX LXFA-586; experiment: Human NSCLC PDX model LXFA-586; details: 25 mg/kg single dose i.v.
Source text: (§4) Animals: Female NMRI nu/nu mice, 4 to 6 weeks of age.
Xenotransplantation: LXFA-586 established growing tumor (T2N1M0) from a primary non-small cell lung adenocarcinoma human patient.
(§5) Experimental procedure: Animals were monitored until the tumor implants reached the study volume criteria of 50-250 mm^3 (e.g., 80-200 mmi) in a sufficient number of animals. […] The process of the assignment to groups (enrollment, stratified randomization) may also be referred to as randomization. The day of randomization was designated as day 0 of the experiment.
(§6) Tumors were measured and mice were weighed twice a week during the experimental period. The first day of dosing was day 1, one day after randomization (day 0).

[13] = test system: human NSCLC PDX LXFL-529; experiment: Human NSCLC PDX model LXFL-529; details: 12.5 mg/kg i.v.
Source text: as §4
Xenotransplantation: LXFL-529 established growing tumor (T3N1M0) from a primary non-small cell lung adenocarcinoma human patient.
as §5, with “mm^3)” for “mmi)”
as §6

[14] = molecular target: mesothelin (Homo sapiens, UniProt Q13421); experiment: Surface plasmon resonance (BIAcore) binding analysis of anti-mesothelin antibodies; details: Table 15; rabbit-human chimeric antibodies, individual curves
Sequence of mesothelin (Q13421 with tags, fused parts or gaps): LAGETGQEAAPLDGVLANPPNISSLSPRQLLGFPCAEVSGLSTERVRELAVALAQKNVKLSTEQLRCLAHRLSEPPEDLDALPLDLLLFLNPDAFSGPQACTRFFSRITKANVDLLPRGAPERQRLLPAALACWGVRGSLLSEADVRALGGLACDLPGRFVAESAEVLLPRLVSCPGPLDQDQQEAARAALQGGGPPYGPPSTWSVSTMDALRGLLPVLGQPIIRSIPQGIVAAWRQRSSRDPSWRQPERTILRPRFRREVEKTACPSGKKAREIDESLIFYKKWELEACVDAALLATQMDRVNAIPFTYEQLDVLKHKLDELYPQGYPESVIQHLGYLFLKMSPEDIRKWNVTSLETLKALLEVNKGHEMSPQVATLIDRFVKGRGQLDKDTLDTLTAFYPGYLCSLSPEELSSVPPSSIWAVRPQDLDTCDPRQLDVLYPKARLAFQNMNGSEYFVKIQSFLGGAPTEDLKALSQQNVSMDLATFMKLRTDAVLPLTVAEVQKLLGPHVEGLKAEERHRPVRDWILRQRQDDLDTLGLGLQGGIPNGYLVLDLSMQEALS
Experimental: Anti-mesothelin antibody binding affinity to mesothelin was measured by BIAcore (BIAcore T-100, GE healthcare, #1426075), using a series S CM5 chip. Antibody concentrations were adjusted to 1 μg/mL and mesothelin (50 μg) to 100 nM in 1×HBS-P+ buffer (GE Healthcare). Anti-human antibody capture chip was prepared according to the manufacturer's protocol using a CM5 chip with immobilization wizard. Final capture antibody levels were 8000-9000 RU, in HBS-P+. Chip was prepared for assay with five cycles of 300 sec buffer injection followed by 30 sec regeneration, all at 30 μL/min across all four flow cells. Antibodies were captured on flow cells 2-4 by sequential injections of individual ligand solutions for 90 sec at 10 μL/min. Analyte injection was done in a single-cycle kinetics manner by sequential injections of analyte solutions from low to high concentration for 240 sec each at 30 μL/min. Detection was 2-1, 3-1, 4-1. Double-referencing was performed by a sequence of identical ligand capture injections, followed by 5 buffer-only injections for 240 sec each, dissociation for 1800 sec, and regeneration as above. All ligands were analyzed for binding to mesothelin in duplicate. Kinetic analysis was performed using BIAEvaluations software using a 1:1 Langmuir fitting model. On-rate, off-rate, and affinity constants were averaged from duplicate runs.

[15] = NCI-H292 cells (MSLN MFI 108.6)
[16] = NCI-H1568/MSLN cells (MSLN MFI 4474.00)
[17] = OVCAR3-A1 cells (MSLN MFI 220.0)
[18] = Table 34: BAY 94-9343 and anetumab, MSLN-expressing CHO cells, Jurkat-Effector cells

Compound | binding to cynomolgus monkey mesothelin [4] | binding to rat mesothelin [5] | % Max Killing ([6]; A431 cells (MSLN MFI 5.6)) [%] | IC50 ([6]; A431 cells (MSLN MFI 5.6)) [nM] | % Max Killing ([6]; BxPC3 cells (MSLN MFI 15.59)) [%] | IC50 ([6]; BxPC3 cells (MSLN MFI 15.59)) [nM] | % Max Killing ([6]; SKOV3 cells (MSLN MFI 20)) [%] | IC50 ([6]; SKOV3 cells (MSLN MFI 20)) [nM] | % Max Killing [7, 15] [%] | % Max Killing [7, 16] [%] | % Max Killing [7, 17] [%] | IC50 [7, 15] [nM] | IC50 [7, 16] [nM] | IC50 [7, 17] [nM] | ADCC activity [8, 18] [%] | also measured
345A12-HC15-LC4: anti-mesothelin antibody, heavy chain SEQ ID NO: 17, light chain SEQ ID NO: 18; antibody in MORAb-109 | retained binding affinity | Nether antibody bound |  |  |  |  |  |  |  |  |  |  |  |  |  | Aggregation % Monomer [1]: 86.56%; % Acidic Peaks [2]: 34.787%; % Basic Peaks [2]: 14.424%; % Neutral Peak [2]: 50.790%; pI [2]: 8.25; Concentration to 5 mg/mL [3]: Yes
COc1cc2cc(c1Cl)N(C)C(=O)C[C@H](OC(=O)[C@H](C)N(C)C(=O)CCC(C)(C)S)[C@]1(C)O[C@H]1[C@H](C)[C@@H]1C[C@@](O)(NC(=O)O1)[C@H](OC)/C=C/C=C(\C)C2 [DM4] |  |  | 92.52 | 0.71 | 97.98 | 0.57 | 81.89 | 0.28 | 92.40 | 77.49 | 100.00 | 0.24 | 0.57 | 0.1 |  | 
BAY 94-9343: ADC comprising anetumab conjugated to the maytansinoid tubulin inhibitor DM4 via a reducible SPDB linker |  |  | 96.82 | 5.31 | 97.33 | 2.53 | 74.99 | 0.81 | 64.15 | 75.10 | 100.00 | 3.07 | 0.15 | 0.41 | 65.06 | cytotoxicity on MSLN-negative cell lines [6]: killing on both MSLN-positive and MSLN-negative cell lines; also recorded: relatively high levels of cytotoxicity; ADCC activity [8]: weaker ADCC activity than anetumab; body weight change [9]: No body weight loss; body weight change [10]: No body weight loss; anti-tumor effect [11]: tumor regression; body weight change [11]: No body weight loss; Tq (tumor volume quadrupling time) [12]: not reached; anti-tumor efficacy [12]: robust anti-tumor efficacy similar to MORAb-109; anti-tumor efficacy [13]: no anti-tumor efficacy; cytotoxicity on MSLN-positive cell lines [7]: killing on both MSLN-positive and MSLN-negative cell lines
MORAb-009: known anti-mesothelin antibody, MORAb-009 (Amatuximab) |  |  |  |  |  |  |  |  |  |  |  |  |  |  |  | Kd [14]: 0.15 nM; ka [14]: 1.95e+06 M⁻¹ s⁻¹; kd [14]: 0.000292 s⁻¹
anetumab: a human anti-mesothelin antibody | did not bind | Nether antibody bound | 18.58 | > 300 | 25.73 | > 300 | 31.55 | > 300 | 15.15 | 5.50 | 19.80 | > 300 | > 100 | > 100 | 100 | 
